# Test results from patent publication US20250382269A1 (CFD Research Corporation, priority 2019, published 2025).
# Several values for one entry are separate records, joined by “and”; a condition that tells them apart may be missing. Equal values may be shown once. Read-outs that look alike come from different tables or passages of the source.
# What was measured:
# [1] = test system: Neisseria gonorrhoeae; assay: microbe, parasite or virus in culture; type: cell-based
# [2] = test system: B. subtilis / cytotoxicity EC50; assay: Selectivity index (SI) using B. subtilis MICs
# Protocol: Additionally, the antimicrobial compounds were analyzed for cytotoxicity. […] We utilized the standard MTT assay (Promega CellTiter 96) and GraphPad Prism 7 software to determine EC50 values for each analogue. Briefly, 20,000 HepG2 cells in 200 μl of the ATCC recommended media were seeded in each well of a 96-well plate with a moisture barrier created in the outermost wells. The cells were allowed to attach overnight at 37° C., and then observed under phase contrast microscopy for proper morphological characteristics. If cells appeared healthy and attached, test compounds were added in 7 concentrations from […] (n=3) from freshly prepared DMSO stock plates. […] Once incubations were complete, the spectrophotometric absorbance of the samples was measured at a wavelength of 595 nm. […] For the HepaRG assay, NoSpin HepaRG™ cells (Lonza, cat #NSHPRG) were thawed and plated with 20,000 cells per well. They were allowed to attach for 4 h (optimal DME profile per Lonza's testing) before dosing following the identical protocol as above.
# [3] = Toxicity study in mice, body weight over 7 days; type: in vivo, Balb/c mice; settings: for toxicity in mice (body weight over 7 days): 6-week-old Balb/c mice, vehicle 40% PEG300 in 0.9% NaCl
# Excerpt: The vehicle is 40% PEG300 solution in 0.9% NaCl. […] Thus, the compounds are useful for in vivo antimicrobial administration.
# [4] = ATCC49226, read-out: Neisseria gonorrhoeae ATCC 49226 MIC, strain ATCC 49226
# [5] = read-out: Neisseria gonorrhoeae WHO 901 MIC, strain WHO 901
# [6] = read-out: Neisseria gonorrhoeae WHO 914 MIC, strain WHO 914
# [7] = IP 0.1 mg/kg, Day 0, individual animals, 0.1 mg/kg
# [8] = IP 0.1 mg/kg, Day 1, individual animals, 0.1 mg/kg
# [9] = IP 0.1 mg/kg, Day 2, individual animals, 0.1 mg/kg
# [10] = IP 0.1 mg/kg, Day 3, individual animals, 0.1 mg/kg
# [11] = IP 0.1 mg/kg, Day 4, individual animals, 0.1 mg/kg
# [12] = IP 0.1 mg/kg, Day 5, individual animals, 0.1 mg/kg
# [13] = IP 0.1 mg/kg, Day 6, individual animals, 0.1 mg/kg
# [14] = IP 0.1 mg/kg, Day 7, individual animals, 0.1 mg/kg
# [15] = IP 1 mg/kg, Day 0, individual animals, 1 mg/kg
# [16] = IP 1 mg/kg, Day 1, individual animals, 1 mg/kg
# [17] = IP 1 mg/kg, Day 2, individual animals, 1 mg/kg
# [18] = IP 1 mg/kg, Day 3, individual animals, 1 mg/kg
# [19] = IP 1 mg/kg, Day 4, individual animals, 1 mg/kg
# [20] = IP 1 mg/kg, Day 5, individual animals, 1 mg/kg
# [21] = IP 1 mg/kg, Day 6, individual animals, 1 mg/kg
# [22] = IP 1 mg/kg, Day 7, individual animals, 1 mg/kg
# [23] = IP 10 mg/kg, Day 0, individual animals, 10 mg/kg
# [24] = IP 10 mg/kg, Day 1, individual animals, 10 mg/kg
# [25] = IP 10 mg/kg, Day 2, individual animals, 10 mg/kg
# [26] = IP 10 mg/kg, Day 3, individual animals, 10 mg/kg
# [27] = IP 10 mg/kg, Day 4, individual animals, 10 mg/kg
# [28] = IP 10 mg/kg, Day 5, individual animals, 10 mg/kg
# [29] = IP 10 mg/kg, Day 6, individual animals, 10 mg/kg
# [30] = IP 10 mg/kg, Day 7, individual animals, 10 mg/kg
structure (smiles),measurement,setting,value
CC(c1ccccc1)c1c[nH]c2ccc(F)cc12 (stereo not drawn),MIC,[1]; [4],8 µg/mL
same,MIC,[1]; [5],4 µg/mL
same,MIC,[1]; [6],8 µg/mL
Cc1ccccc1Oc1c[nH]c2ccc(F)cc12,MIC,[1]; [4],8 µg/mL
same,MIC,[1]; [5],4 µg/mL
same,MIC,[1]; [6],8 µg/mL
Cc1cccc(Cc2c[nH]c3ccc(F)cc23)c1,MIC,[1]; [4],8 µg/mL
same,MIC,[1]; [5],8 µg/mL
same,MIC,[1]; [6],> 8 µg/mL
Fc1ccc2[nH]cc(Cc3ccccc3F)c2c1,MIC,[1]; [4],8 µg/mL
same,MIC,[1]; [5],8 µg/mL
same,MIC,[1]; [6],> 8 µg/mL
Fc1ccc2[nH]cc(Cc3ccc(Br)cc3)c2c1 [3-(4 bromobenzyl)-5-fluoro-1H-indole],MIC,[1]; [4],4 µg/mL
Brc1ccc(Oc2c[nH]c3ccccc23)cc1 [3-(4-bromophenoxy)-1H-indole],MIC,[1]; [4],> 8 µg/mL
same,MIC,[1]; [5],4 µg/mL
same,MIC,[1]; [6],> 8 µg/mL
c1ccc(Oc2c[nH]c3ccccc23)cc1 [3-phenoxy-1H-indole],MIC,[1]; [4],> 8 µg/mL
same,MIC,[1]; [5],> 8 µg/mL
same,MIC,[1]; [6],> 8 µg/mL
Brc1ccc2[nH]cc(Oc3ccccc3)c2c1 [5 bromo-3-phenoxy-1H-indole],MIC,[1]; [4],8 µg/mL
same,MIC,[1]; [5],4 µg/mL
same,MIC,[1]; [6],8 µg/mL
Brc1ccc(Oc2c[nH]c3ccc(Br)cc23)cc1 [5-bromo-3-(4-bromophenoxy)-1H-indole],MIC,[1]; [4],4 µg/mL
same,MIC,[1]; [5],2 µg/mL
same,MIC,[1]; [6],4 µg/mL
"COc1ccc2[nH]cc(Sc3ccc(Br)cc3)c2c1 [Compound 172E, 3-((4-bromophenyl)thio)-5-methoxy-1H-indole]",SI (selectivity index),[2],14.9
"Oc1ccccc1Sc1c[nH]c2ccc(Br)cc12 [Compound 174AI, 2-((5-bromo-1H-indol-3-yl)thio)phenol]",toxicity in mice (body weight over 7 days),[3],did not have significant toxicity
same,Animal body weight,[3]; [7],0.023 kg (2×) and 0.022 kg
same,Animal body weight,[3]; [8],0.022 kg (2×) and 0.021 kg
same,Animal body weight,[3]; [9],0.023 kg and 0.022 kg and 0.021 kg
same,Animal body weight,[3]; [10],0.024 kg and 0.022 kg (2×)
same,Animal body weight,[3]; [11],0.024 kg and 0.022 kg (2×)
same,Animal body weight,[3]; [12],0.024 kg and 0.022 kg (2×)
same,Animal body weight,[3]; [13],0.024 kg and 0.022 kg (2×)
same,Animal body weight,[3]; [14],0.023 kg (2×) and 0.022 kg
same,Animal body weight,[3]; [15],0.022 kg and 0.024 kg and 0.026 kg
same,Animal body weight,[3]; [16],0.023 kg and 0.024 kg and 0.026 kg
same,Animal body weight,[3]; [17],0.023 kg and 0.025 kg and 0.026 kg
same,Animal body weight,[3]; [18],0.023 kg and 0.025 kg and 0.027 kg
same,Animal body weight,[3]; [19],0.022 kg and 0.025 kg and 0.026 kg
same,Animal body weight,[3]; [20],0.022 kg and 0.025 kg and 0.026 kg
same,Animal body weight,[3]; [21],0.022 kg and 0.024 kg and 0.026 kg
same,Animal body weight,[3]; [22],0.022 kg and 0.024 kg and 0.026 kg
same,Animal body weight,[3]; [23],0.022 kg and 0.026 kg and 0.024 kg
same,Animal body weight,[3]; [24],0.021 kg and 0.024 kg and 0.022 kg
same,Animal body weight,[3]; [25],0.022 kg and 0.024 kg and 0.023 kg
same,Animal body weight,[3]; [26],0.022 kg and 0.025 kg and 0.023 kg
same,Animal body weight,[3]; [27],0.022 kg and 0.026 kg and 0.024 kg
same,Animal body weight,[3]; [28],0.023 kg and 0.026 kg and 0.024 kg
same,Animal body weight,[3]; [29],0.022 kg and 0.026 kg and 0.024 kg
same,Animal body weight,[3]; [30],0.022 kg and 0.026 kg and 0.023 kg
"Fc1ccccc1Sc1c[nH]c2ccc(Br)cc12 [Compound 174AU, 5-bromo-3-((2-fluorophenyl)thio)-1H-indole]",toxicity in mice (body weight over 7 days),[3],did not have significant toxicity
same,Animal body weight,[3]; [7],0.026 kg and 0.023 kg and 0.024 kg
same,Animal body weight,[3]; [8],0.024 kg and 0.022 kg and 0.023 kg
same,Animal body weight,[3]; [9],0.025 kg and 0.022 kg and 0.023 kg
same,Animal body weight,[3]; [10],0.025 kg and 0.022 kg and 0.023 kg
same,Animal body weight,[3]; [11],0.025 kg and 0.022 kg and 0.023 kg
same,Animal body weight,[3]; [12],0.025 kg and 0.023 kg and 0.024 kg
same,Animal body weight,[3]; [13],0.025 kg and 0.022 kg and 0.023 kg
same,Animal body weight,[3]; [14],0.024 kg and 0.022 kg and 0.023 kg
same,Animal body weight,[3]; [15],0.026 kg and 0.022 kg and 0.025 kg
same,Animal body weight,[3]; [16],0.025 kg (2×) and 0.022 kg
same,Animal body weight,[3]; [17],0.026 kg and 0.022 kg and 0.025 kg
same,Animal body weight,[3]; [18],0.026 kg and 0.022 kg and 0.025 kg
same,Animal body weight,[3]; [19],0.026 kg and 0.023 kg and 0.025 kg
same,Animal body weight,[3]; [20],0.026 kg and 0.023 kg and 0.025 kg
same,Animal body weight,[3]; [21],0.025 kg (2×) and 0.023 kg
same,Animal body weight,[3]; [22],0.026 kg and 0.024 kg and 0.025 kg
same,Animal body weight,[3]; [23],0.024 kg (2×) and 0.025 kg
same,Animal body weight,[3]; [24],0.023 kg (2×) and 0.024 kg
same,Animal body weight,[3]; [25],0.023 kg (2×) and 0.025 kg
same,Animal body weight,[3]; [26],0.024 kg and 0.023 kg and 0.025 kg
same,Animal body weight,[3]; [27],0.023 kg (2×) and 0.025 kg
same,Animal body weight,[3]; [28],0.023 kg (2×) and 0.026 kg
same,Animal body weight,[3]; [29],0.022 kg and 0.023 kg and 0.026 kg
same,Animal body weight,[3]; [30],0.022 kg and 0.023 kg and 0.026 kg
"Cc1[nH]c2ccc(Br)cc2c1Sc1ccccc1Br [Compound 174AZ, 5-bromo-3-((2-bromophenyl)thio)-2-methyl-1H-indole]",toxicity in mice (body weight over 7 days),[3],did not have significant toxicity
same,Animal body weight,[3]; [7],0.023 kg (2×) and 0.025 kg
same,Animal body weight,[3]; [8],0.022 kg and 0.024 kg and 0.023 kg
same,Animal body weight,[3]; [9],0.022 kg and 0.025 kg and 0.023 kg
same,Animal body weight,[3]; [10],0.022 kg and 0.025 kg and 0.023 kg
same,Animal body weight,[3]; [11],0.023 kg (2×) and 0.025 kg
same,Animal body weight,[3]; [12],0.022 kg and 0.025 kg and 0.023 kg
same,Animal body weight,[3]; [13],0.022 kg and 0.025 kg and 0.023 kg
same,Animal body weight,[3]; [14],0.022 kg (2×) and 0.025 kg
same,Animal body weight,[3]; [15],0.024 kg (2×) and 0.025 kg
same,Animal body weight,[3]; [16],0.023 kg and 0.024 kg (2×)
same,Animal body weight,"[3]; IP 1 mg/kg, Day 2, individual animals",0.024 kg
same,Animal body weight,[3]; [18],0.025 kg and 0.024 kg (2×)
same,Animal body weight,[3]; [19],0.025 kg (2×) and 0.024 kg
same,Animal body weight,[3]; [20],0.025 kg and 0.023 kg and 0.024 kg
same,Animal body weight,[3]; [21],0.025 kg and 0.024 kg (2×)
same,Animal body weight,[3]; [22],0.025 kg and 0.023 kg and 0.024 kg
same,Animal body weight,[3]; [23],0.023 kg (2×) and 0.024 kg
same,Animal body weight,[3]; [24],0.022 kg (2×) and 0.023 kg
same,Animal body weight,[3]; [25],0.022 kg and 0.023 kg (2×)
same,Animal body weight,[3]; [26],0.022 kg (2×) and 0.023 kg
same,Animal body weight,"[3]; IP 10 mg/kg, Day 4, individual animals",0.023 kg
same,Animal body weight,"[3]; IP 10 mg/kg, Day 5, individual animals",0.023 kg
same,Animal body weight,[3]; [29],0.022 kg (2×) and 0.023 kg
same,Animal body weight,[3]; [30],0.023 kg (2×) and 0.022 kg
"Clc1ccc2[nH]cc(Sc3ccc(Br)cc3)c2c1 [Compound 174C, 3-((4-bromophenyl)thio)-5-chloro-1H-indole]",SI (selectivity index),[2],16.3
"Fc1ccc2[nH]cc(Sc3ccc(Br)cc3)c2c1 [Compound 174E, 3-((4-bromophenyl)thio)-5-fluoro-1H-indole]",SI (selectivity index),[2],14.2
"Clc1ccc(Sc2c[nH]c3ccc(Br)cc23)cc1 [Compound 174J, 5-bromo-3-((4-chlorophenyl)thio)-1H-indole]",SI (selectivity index),[2],16.2
"Fc1ccc(Sc2c[nH]c3ccc(Br)cc23)cc1 [Compound 174P, 5-bromo-3-((4-fluorophenyl)thio)-1H-indole]",SI (selectivity index),[2],24.6
"Clc1ccc(Sc2c[nH]c3ccc(Br)cc23)c(Cl)c1 [Compound 174V, 5-bromo-3-((2,4-dichlorophenyl)thio)-1H-indole]",SI (selectivity index),[2],19.8
"Oc1ccccc1Sc1c[nH]c2ccc(C(F)(F)F)cc12 [Compound 177A, 2-((5-(trifluoromethyl)-1H-indol-3-yl)thio)phenol]",SI (selectivity index),[2],61.8
"Oc1ccc(Sc2c[nH]c3ccc(C(F)(F)F)cc23)cc1 [Compound 177B, 4-((5-(trifluoromethyl)-1H-indol-3-yl)thio)phenol]",SI (selectivity index),[2],17.8
"Nc1ccccc1Sc1c[nH]c2ccc(C(F)(F)F)cc12 [Compound 177C, 2-((5-(trifluoromethyl)-1H-indol-3-yl)thio)aniline]",SI (selectivity index),[2],123.6
"Fc1ccccc1Sc1c[nH]c2ccc(C(F)(F)F)cc12 [Compound 177D, 3-((2-fluorophenyl)thio)-5-(trifluoromethyl)-1H-indole]",SI (selectivity index),[2],17.4
"Fc1ccc2[nH]cc(Sc3ccccc3Br)c2c1 [Compound 177E, 3-((2-bromophenyl)thio)-5-fluoro-1H-indole]",SI (selectivity index),[2],20.3
